Test [1] concerns formation of ET-1 from Big-ET-1. As to the kind of experiment: In vivo inhibition of the Big-ET-1-induced blood pressure increase in anaesthetised rats, i.v. single dose. Set-up: species or system Rats (Sprague-Dawley). To be noted: Rattus norvegicus, iv, 5 min before 0.5 nmol/kg Big-ET-1, negative values indicate inhibition, read-out: % substance-related inhibition of the maximum Big-ET effect on SAP vs. control; for change in vivo at 10 µmol/kg: 10 μmol/kg; for change in vivo at 3 µmol/kg: 3 μmol/kg. From the text:
3. In Vivo Investigation of the Inhibitory Action of the Substances on the Formation of ET-1 from Big-ET-1 in Rats
ET-1 is an endogenous substance with strong vasoconstrictive effect. An increase in the ET-1 level results in an increase in blood pressure. Upon infusion of Big-ET-1, an increase in blood pressure takes place to the extent that ET-1 is produced therefrom by enzyme-catalysed cleavage of Big-ET-1. As a measurement of the enzyme-inhibiting action of the substances, their inhibitory action on the increase in blood pressure induced by infusion of Big-ET-1 was determined.
Rats (Sprague-Dawley, CRLD=Charles River) were anaesthetised with 1 ml/kg Rompun/Ketavet 1:1. A pressure transducer (Statham) was inserted into the carotid artery to measure blood pressure. One jugular vein was cannulated for administering the substance, and the other for administering Big-ET-1. After a 20-minute equilibration phase, the rats were administered the corresponding test substance of Formula I at a dose of as a rule 10 μmol/kg (if not stated otherwise), or a vehicle. Five minutes later, 0.5 nmol/kg Big-ET-1 was infused over a period of one minute. The systolic (SAP=systolic arterial pressure) and the diastolic (DAP=diastolic arterial pressure) blood pressure and the heart rate were each measured before administration of the substance, then immediately before administration of Big-ET and in each case every five minutes over a period of 30 minutes after Big-ET administration using the pressure transducer in known manner. The maximum Big-ET-induced increase in blood pressure and the maximum lowering of heart rate were calculated from the measured values as the difference between the value measured at the moment of maximum development of the Big-ET action (typically after 5 min.) and the value measured before Big-ET infusion. Furthermore, the integral of the blood pressure curve under the influence of Big-ET-1 was determined over 30 minutes (AUC=area under the curve).
The percentage inhibition of the maximum Big-ET-1 effect on the systolic arterial blood pressure (SAP) after i.v. administration of the test substances compared with administration of a vehicle is set forth in the following Table 3a:
Data given in table 3a as negative values indicate an inhibitory effect.

Test [2] addresses T1, His6-tagged hSEP ectodomain (Homo sapiens, UniProt Q495T6).
T1 construct: His6-tagged hSEP ectodomain; His6; purchased Innogenetics, Ghent, Belgium
T1 sequence (Q495T6 49-779 limits assumed): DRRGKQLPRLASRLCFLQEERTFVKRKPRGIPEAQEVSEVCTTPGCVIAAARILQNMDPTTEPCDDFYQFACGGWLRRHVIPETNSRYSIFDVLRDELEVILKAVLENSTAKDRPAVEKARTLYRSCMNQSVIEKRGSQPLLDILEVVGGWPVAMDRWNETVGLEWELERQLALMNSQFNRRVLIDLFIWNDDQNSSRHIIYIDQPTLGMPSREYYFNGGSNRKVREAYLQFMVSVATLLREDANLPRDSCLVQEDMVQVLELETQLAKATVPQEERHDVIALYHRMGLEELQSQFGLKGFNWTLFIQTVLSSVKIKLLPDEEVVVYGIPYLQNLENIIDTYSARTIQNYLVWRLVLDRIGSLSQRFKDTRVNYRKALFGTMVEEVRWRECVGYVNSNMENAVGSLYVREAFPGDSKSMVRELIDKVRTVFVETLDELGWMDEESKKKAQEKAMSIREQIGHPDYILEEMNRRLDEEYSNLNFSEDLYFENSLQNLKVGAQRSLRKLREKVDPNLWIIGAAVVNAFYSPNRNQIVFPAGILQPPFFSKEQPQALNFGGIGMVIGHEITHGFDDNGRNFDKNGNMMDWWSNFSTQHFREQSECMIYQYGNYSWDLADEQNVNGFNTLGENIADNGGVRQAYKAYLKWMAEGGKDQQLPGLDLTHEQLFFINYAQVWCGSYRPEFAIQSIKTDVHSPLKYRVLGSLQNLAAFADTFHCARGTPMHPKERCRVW
The test is described as follows: In vitro investigation of the hSEP-inhibitory action (fluorescence-quenched Big-ET-1 analogue, HPLC). The format is biochemical. The method, then: 2. In Vitro Investigation of the hSEP-Inhibitory Action of the Substances
In this test, the measure of the inhibitory activity of the substances which was determined was their IC50 value. The IC50 value of a test substance having enzyme-inhibitory activity is that concentration of the test substance at which 50% of the enzymatic activity of the hSEP is blocked.
The test and the HPLC procedure were carried out analogously to the manner set forth above for determining the in vitro inhibitory action of the test substances on NEP. 10 nM phosphoramidon served as standard inhibitor in the HPLC procedure. In this test model the test substances of Formula I listed in the following Table 2 had the IC50 values given below: […]

Test [3] deals with T2, soluble, human recombinant NEP (Homo sapiens, UniProt P08473).
T2 construct: soluble, human recombinant NEP; purchased Prof; Crine, University of Montreal, Canada
T2 sequence (P08473 52-750 limits assumed): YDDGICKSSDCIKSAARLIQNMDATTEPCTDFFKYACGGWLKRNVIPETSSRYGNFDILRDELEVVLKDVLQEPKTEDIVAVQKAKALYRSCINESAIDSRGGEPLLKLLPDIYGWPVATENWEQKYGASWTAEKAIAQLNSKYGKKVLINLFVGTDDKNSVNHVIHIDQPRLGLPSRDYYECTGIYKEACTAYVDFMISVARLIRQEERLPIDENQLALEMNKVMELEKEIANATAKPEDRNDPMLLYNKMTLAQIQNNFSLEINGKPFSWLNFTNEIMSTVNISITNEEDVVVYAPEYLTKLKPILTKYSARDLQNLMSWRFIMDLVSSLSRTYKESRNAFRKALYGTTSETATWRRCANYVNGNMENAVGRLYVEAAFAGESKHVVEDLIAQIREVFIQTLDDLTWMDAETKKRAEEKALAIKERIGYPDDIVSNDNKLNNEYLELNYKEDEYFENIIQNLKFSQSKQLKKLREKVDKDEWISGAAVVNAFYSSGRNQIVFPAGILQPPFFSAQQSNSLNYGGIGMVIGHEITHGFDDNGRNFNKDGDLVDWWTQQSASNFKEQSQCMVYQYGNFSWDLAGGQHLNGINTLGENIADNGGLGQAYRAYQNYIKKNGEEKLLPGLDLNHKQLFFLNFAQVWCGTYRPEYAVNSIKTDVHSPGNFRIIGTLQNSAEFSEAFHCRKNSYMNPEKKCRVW
As to the kind of experiment: In-vitro investigation of the NEP inhibitory action (fluorescence-quenched Big-ET-1 analogue, HPLC). The format is biochemical. The method, then: 1. In-Vitro Investigation of the NEP Inhibitory Action of the Substances
In this test, the measure of the inhibitory activity of the substances which was determined was their IC50 value. The IC50 value of a test substance having enzyme-inhibitory activity is that concentration of the test substance at which 50% of the enzymatic activity of the NEP is blocked.
70 μl test buffer, 10 μl enzyme working solution and 10 μl test substance solution were mixed in an Eppendorf vessel and preincubated at 37° C. for 15 minutes (=min.). Then 10 μl substrate stock solution was added and the test batch was incubated for 60 minutes at 37° C. The enzymatic reaction was then ended by 5-minutes' heating to 95° C. After centrifugation (Heraeus Biofuge B, 3 min.), the liquid supernatant was investigated by HPLC in accordance with the following specifications.
The substrate was separated from cleavage products by means of reversed-phase HPLC (CC 125/4 Nucleosil 300/5 C18 RP column with CC 8/4 Nucleosil 100/5 C18 precolumn, from Macherey-Nagel, Düren, Germany). For this, 60 μl of the test mixture was injected into the HPLC sample injection point and the column was then eluted at a flow rate of 1 ml/min with the following gradient:
Mobile Phase B: 100% acetonitrile+0.5M H3PO4
All the peptides were detected by absorption at 214 nm and by fluorescence with an excitation wavelength of 328 nm and an emission wavelength of 393 nm.
Upon enzymatic cleavage of the peptide, the fluorophore (=Mca) and the quencher end up in different peptide fragments, which reduces the effectiveness of the quench. […] The increasing fluorescence signal (corresponds to the area, A) of the HPLC peak of the peptide with the non-quenched Mca fluorophore is used for the further calculations. This signal was compared for samples with (=Ainhib) and without (=Acontrol) test substance of Formula I, and the value “% inhibition” was calculated on the basis of the respective peak areas according to the following formula: % inhibition=100*(1−Ainhib/Acontrol)
All the samples were measured in duplicates and average values were calculated therefrom. A standard inhibitor (10 nM thiorphan) and a solvent control (0.1% DMSO) were likewise measured as quality controls on each run. In this test model the test substances of Formula I listed in the following Table 1 had the IC50 values given below: […]

SMILES strings stand for the structures.

The record followed here is US20080085889A1, “Amidomethyl-Substituted 1-(Carboxyalkyl) Cyclopentyl-Carbonylamino-Benzazepine-N-Acetic Acid Compounds, Process and Intermediate Products for Their Preparation and Pharmaceutical Compositions Containing Them” (SOLVAY PHARMACEUTICALS GmbH, priority 2003, published 2008).

In the case of `CN(C)CCCN(C)C(=O)CC(CC1(C(=O)NC2CCc3ccccc3N(CC(=O)O)C2=O)CCCC1)C(=O)O` (racemic) [Example 60, 2-[(1-{[1-(carboxymethyl)-2-oxo-2,3,4,5-tetrahydro-1H-1-benzazepin-3-yl]carbamoyl}cyclopentyl)methyl]-4-{[3-(dimethylamino)propyl](methyl)amino}-4-oxobutanoic acid], the change in vivo at 10 µmol/kg in test [1] was -70%.
On to `O=C(O)CN1C(=O)[C@@H](NC(=O)C2(CC(CC(=O)NCc3ccccc3)C(=O)O)CCCC2)CCc2ccccc21` (mixture of isomers) [Example 27], for which the IC50 was 26.8 nM in test [2] and 7.8 nM in test [3].
Turning to `CC(C)[C@H](N)C(=O)OC1CCN(C(=O)CC(CC2(C(=O)N[C@H]3CCc4ccccc4N(CC(=O)O)C3=O)CCCC2)C(=O)O)CC1` (stereo partly drawn) [Example 70, 2-{[1-({[1-(carboxymethyl)-2-oxo-2,3,4,5-tetrahydro-1H-1-benzazepin-3-yl]amino}carbonyl)cyclopentyl]methyl}-4-oxo-4-[4-(L-valyloxy)piperidin-1-yl]butanoic acid], the change in vivo at 10 µmol/kg in test [1] was -77%.
In the case of `COc1ccccc1CNC(=O)CC(CC1(C(=O)N[C@H]2CCc3ccccc3N(CC(=O)O)C2=O)CCCC1)C(=O)O` (single isomer, unassigned) [Example 31], the figures for the IC50 in test [2] and in test [3] were 12.3 nM and 4 nM, respectively.
For `CNC(=O)CC(CC1(C(=O)N[C@H]2CCc3ccccc3N(CC(=O)O)C2=O)CCCC1)C(=O)O` (mixture of isomers) [Example 28], the IC50 in test [2] was found to be 11.9 nM.
Consider `CNCCCN(C)C(=O)CC(CC1(C(=O)NC2CCc3ccccc3N(CC(=O)O)C2=O)CCCC1)C(=O)O` (racemic) [Example 77, 2-{[1-({[1-(carboxymethyl)-2-oxo-2,3,4,5-tetrahydro-1H-1-benzazepin-3-yl]amino}carbonyl)cyclopentyl]methyl}-4-{methyl[3-(methylamino)propyl]amino}-4-oxobutanoic acid], for which the change in vivo at 3 µmol/kg in test [1] was -56%.
On the same count and under the same terms, for `CC(C)NC(=O)CC(CC1(C(=O)N[C@H]2CCc3ccccc3N(CC(=O)O)C2=O)CCCC1)C(=O)OCc1ccc(Cl)cc1` (stereo partly drawn) [Example 14, {(3S)-3-[({1-[2-{[(4-chlorobenzyl)oxy]carbonyl}-4-(isopropylamino)-4-oxobutyl]-cyclopentyl}carbonyl)amino]-2-oxo-2,3,4,5-tetrahydro-1H-1-benzazepin-1-yl}acetic acid] the value was -59%.
With `O=C(O)CN1C(=O)[C@@H](NC(=O)C2(CC(CC(=O)N3CCOCC3)C(=O)O)CCCC2)CCc2ccccc21` (single isomer, unassigned) [Example 19], the values for the IC50 in test [2] and in test [3] were 9.5 nM and 18.2 nM, respectively.
`CC(=O)CC(C)(C)NC(=O)CC(CC1(C(=O)N[C@H]2CCc3ccccc3N(CC(=O)O)C2=O)CCCC1)C(=O)O` (mixture of isomers) [Example 21]: in test [3], the IC50 is 16.9 nM. Moreover, in test [1], the change in vivo at 10 µmol/kg was -43%.
For `CN(C)C(=O)CC(CC1(C(=O)NC2CCc3ccccc3N(CC(=O)O)C2=O)CCCC1)C(=O)O` (racemic) [Example 54, 2-{[1-({[1-(carboxymethyl)-2-oxo-2,3,4,5-tetrahydro-1H-1-benzazepin-3-yl]amino}carbonyl)cyclopentyl]methyl}-4-(dimethylamino)-4-oxobutanoic acid], the change in vivo at 10 µmol/kg in test [1] is -87%.
`CC(C)NC(=O)CC(CC1(C(=O)N[C@H]2CCc3ccccc3N(CC(=O)O)C2=O)CCCC1)C(=O)O` (stereo partly drawn) [Example 2, 2-{[(3S)-1-({[1-(carboxymethyl)-2-oxo-2,3,4,5-tetrahydro-1H-1-benzazepin-3-yl]amino}-carbonyl)cyclopentyl]methyl}-4-(isopropylamino)-4-oxobutyric acid] showed an IC50 in test [2] of 21.4 nM. In addition, in test [1], the change in vivo at 10 µmol/kg was -53%.
Regarding `CC(C)N(C)C(=O)CC(CC1(C(=O)NC2CCc3ccccc3N(CC(=O)O)C2=O)CCCC1)C(=O)O` (racemic) [Example 32, 2-{[1-({[1-(carboxymethyl)-2-oxo-2,3,4,5-tetrahydro-1H-1-benzazepin-3-yl]amino}carbonyl)cyclopentyl]methyl}-4-[isopropyl(methyl)amino]-4-oxobutanoic acid], the IC50 in test [3] was 13.8 nM. In addition, the change in vivo at 10 µmol/kg in test [1] is -60%.
`O=C(O)CN1C(=O)[C@@H](NC(=O)C2(CC(CC(=O)NCCCO)C(=O)O)CCCC2)CCc2ccccc21` (stereo in doubt) [Example 10, (2″rel1″)-2-{[1-({[(3S)-1-(carboxymethyl)-2-oxo-2,3,4,5-tetrahydro-1H-1-benzazepin-3-yl]amino}carbonyl)cyclopentyl]methyl}-4-[(3-hydroxypropyl)amino]-4-oxobutyric acid]: the IC50 in test [2] was 25.3 nM; in test [3], 37 nM.
In the case of `CN(CCCO)C(=O)CC(CC1(C(=O)NC2CCc3ccccc3N(CC(=O)O)C2=O)CCCC1)C(=O)O` (racemic) [Example 56, 2-{[1-({[1-(carboxymethyl)-2-oxo-2,3,4,5-tetrahydro-1H-1-benzazepin-3-yl]amino}carbonyl)cyclopentyl]methyl}-4-[(3-hydroxypropyl)(methyl)amino]-4-oxobutanoic acid], the IC50 in test [2] turned out to be 2.5 nM.

The IC50 is the concentration that gives 50% inhibition.
